According to article PMC3488302 (MedChemComm, 2012):
*1 amine or outer side, *2 acyl side, *3 side chain or, on linkers, in order; H or OH if unused. Where a SMILES comes first, the peptide text is derived from it. [ ]: non-standard residue; d: D form. The star is where a group is joined. NMeAbu(4-morpholino) = CN[C@@H](CCN1CCOCC1)C(=O)O; X1 = CN([C@@H](CCN1CCCCC1)C(=O)[*:2])[*:1]; NMeW = CN[C@@H](Cc1c[nH]c2ccccc12)C(=O)O; NMeY = CN[C@@H](Cc1ccc(O)cc1)C(=O)O; NMeCha = CN[C@@H](CC1CCCCC1)C(=O)O; NMeLys(Me) = CNCCCC[C@H](NC)C(=O)O; NMeF = CN[C@@H](Cc1ccccc1)C(=O)O; NMeI = CC[C@H](C)[C@H](NC)C(=O)O; NMeT = CN[C@H](C(=O)O)[C@@H](C)O; NMeD = CN[C@@H](CC(=O)O)C(=O)O; dNMeL = CN[C@H](CC(C)C)C(=O)O; NMeK = CN[C@@H](CCCCN)C(=O)O; NMeS = CN[C@@H](CO)C(=O)O; Morpholide = C1CN(*)CCO1; NMeA = CN[C@@H](C)C(=O)O; Piperidide = C1CCN(*)CC1

Legend:
[1] = rat intestinal S-9 fraction and rat brush border membrane vesicles
[2] = system: RRCK (Ralph Russ canine kidney cell line); assay: RRCK permeability; settings: MDCK
RRCK permeability = settings: MDCK; for Papp A→B: dog
[3] = rat; cited from earlier work
Caco-2 = settings: cited from earlier work

Row | Compound | log Papp(RRCK) [2] | recovery (RRCK permeability) [%] | other results
1 | CC(C)C[C@@H]1NC(=O)[C@H](Cc2ccc(O)cc2)N(C)C(=O)[C@H]2CCCN2C(=O)[C@H](CC(C)C)NC(=O)[C@H](CO)N(C)C(=O)[C@@H](CC(C)C)N(C)C1=O [Compound 2] (cyclo(L[dNMeL][NMeS]L[dP][NMeY])) | −5.81 | 84.3 | stability towards oxidative or proteolytic degradation [1]: stable
2 | CC(C)C[C@@H]1NC(=O)[C@H](Cc2ccc(O)cc2)N(C)C(=O)[C@H]2CCCN2C(=O)[C@H](CC(C)C)NC(=O)[C@H]([C@@H](C)O)N(C)C(=O)[C@@H](CC(C)C)N(C)C1=O [Compound 3] (cyclo(L[dNMeL][NMeT]L[dP][NMeY])) | −5.33 |  | 
3 | CC[C@H](C)[C@H]1C(=O)N[C@@H](CC(C)C)C(=O)N2CCC[C@@H]2C(=O)N(C)[C@@H](Cc2ccc(O)cc2)C(=O)N[C@@H](CC(C)C)C(=O)N(C)[C@H](CC(C)C)C(=O)N1C [Compound 4] (cyclo(L[dNMeL][NMeI]L[dP][NMeY])) |  | 39.7 | 
4 | CC(C)C[C@@H]1NC(=O)[C@H](Cc2ccc(O)cc2)N(C)C(=O)[C@H]2CCCN2C(=O)[C@H](CC(C)C)NC(=O)[C@H](C)N(C)C(=O)[C@@H](CC(C)C)N(C)C1=O [Compound 5] (cyclo(L[dNMeL][NMeA]L[dP][NMeY])) | −5.26 | 47.1 | 
5 | CC(C)C[C@@H]1NC(=O)[C@H](Cc2ccc(O)cc2)N(C)C(=O)[C@H]2CCCN2C(=O)[C@H](CC(C)C)NC(=O)[C@H](Cc2ccc(O)cc2)N(C)C(=O)[C@@H](CC(C)C)N(C)C1=O [Compound 6] (cyclo(L[dNMeL][NMeY]L[dP][NMeY])) | −5.88 | 72.6 | 
6 | CC(C)C[C@@H]1NC(=O)[C@H](Cc2ccc(O)cc2)N(C)C(=O)[C@H]2CCCN2C(=O)[C@H](CC(C)C)NC(=O)[C@H](Cc2ccccc2)N(C)C(=O)[C@@H](CC(C)C)N(C)C1=O [Compound 7] (cyclo(L[dNMeL][NMeF]L[dP][NMeY])) | −5.24 | 59.8 | 
7 | CC(C)C[C@@H]1NC(=O)[C@H](Cc2ccc(O)cc2)N(C)C(=O)[C@H]2CCCN2C(=O)[C@H](CC(C)C)NC(=O)[C@H](Cc2c[nH]c3ccccc23)N(C)C(=O)[C@@H](CC(C)C)N(C)C1=O [Compound 8] (cyclo(L[dNMeL][NMeW]L[dP][NMeY])) | −6.66 | 37.1 | 
8 | CC(C)C[C@@H]1NC(=O)[C@H](Cc2ccc(O)cc2)N(C)C(=O)[C@H]2CCCN2C(=O)[C@H](CC(C)C)NC(=O)[C@H](CC(=O)O)N(C)C(=O)[C@@H](CC(C)C)N(C)C1=O [Compound 9] (cyclo(L[dNMeL][NMeD]L[dP][NMeY])) |  | 74.8 | Papp A→B (RRCK permeability): 0.457 ×10⁻⁶ cm/s
9 | CC(C)C[C@@H]1NC(=O)[C@H](Cc2ccc(O)cc2)N(C)C(=O)[C@H]2CCCN2C(=O)[C@H](CC(C)C)NC(=O)[C@H](CCCCN)N(C)C(=O)[C@@H](CC(C)C)N(C)C1=O [Compound 10] (cyclo(L[dNMeL][NMeK]L[dP][NMeY])) | −6.56 | 56.5 | 
10 | CNCCCC[C@H]1C(=O)N[C@@H](CC(C)C)C(=O)N2CCC[C@@H]2C(=O)N(C)[C@@H](Cc2ccc(O)cc2)C(=O)N[C@@H](CC(C)C)C(=O)N(C)[C@H](CC(C)C)C(=O)N1C [Compound 11] (cyclo(L[dNMeL][NMeLys(Me)]L[dP][NMeY])) |  | 59.7 | Papp A→B (RRCK permeability): 0.234 ×10⁻⁶ cm/s
11 | CC(C)C[C@@H]1NC(=O)[C@H](Cc2ccc(O)cc2)N(C)C(=O)[C@H]2CCCN2C(=O)[C@H](CC(C)C)NC(=O)[C@H](CC2CCCCC2)N(C)C(=O)[C@@H](CC(C)C)N(C)C1=O [Compound 12] (cyclo(L[dNMeL][NMeCha]L[dP][NMeY])) | −6.74 | 12.2 | 
12 | CC(C)C[C@@H]1NC(=O)[C@H](Cc2ccc(O)cc2)N(C)C(=O)[C@H]2CCCN2C(=O)[C@H](CC(C)C)NC(=O)[C@H](CCN2CCCCC2)N(C)C(=O)[C@@H](CC(C)C)N(C)C1=O [Compound 13] (cyclo(L[dNMeL][X1]L[dP][NMeY])) | −6.15 | 47.9 | 
13 | CC(C)C[C@@H]1NC(=O)[C@H](Cc2ccc(O)cc2)N(C)C(=O)[C@H]2CCCN2C(=O)[C@H](CC(C)C)NC(=O)[C@H](CC(=O)N2CCCCC2)N(C)C(=O)[C@@H](CC(C)C)N(C)C1=O [Compound 14] (cyclo(L[dNMeL][NMeD](Piperidide)L[dP][NMeY])) | −5.84 | 45.6 | 
14 | CC(C)C[C@@H]1NC(=O)[C@H](Cc2ccc(O)cc2)N(C)C(=O)[C@H]2CCCN2C(=O)[C@H](CC(C)C)NC(=O)[C@H](CCN2CCOCC2)N(C)C(=O)[C@@H](CC(C)C)N(C)C1=O [Compound 15] (cyclo(L[dNMeL][NMeAbu(4-morpholino)]L[dP][NMeY])) | −5.92 | 48.7 | 
15 | CC(C)C[C@@H]1NC(=O)[C@H](Cc2ccc(O)cc2)N(C)C(=O)[C@H]2CCCN2C(=O)[C@H](CC(C)C)NC(=O)[C@H](CC(=O)N2CCOCC2)N(C)C(=O)[C@@H](CC(C)C)N(C)C1=O [Compound 16] (cyclo(L[dNMeL][NMeD](Morpholide)L[dP][NMeY])) | −6.20 | 47.9 | 
16 | cyclo-[LPro-LPhe-DTrp(NMe)-LLys(NMe)-LThr-LPhe(NMe)] [Kessler peptide] |  |  | oral bioavailability [3]: 10%; Caco-2 permeability (Caco-2): good
